Values after ≈ are worked out from the molar mass of the structure shown.
Legend:
Format in all cases: cell-based
[1] = system: STAPHYLOCOCCUS AUREUS A5177; assay: In vitro antibacterial activity, MIC, BHI agar dilution
[2] = system: STAPHYLOCOCCUS AUREUS 1775; assay: as above; settings: S. aureus 1775, unit assumed
[3] = system: PSEUDOMONAS AERUGINOSA BMH10; assay: as above; settings: P. aeruginosa BMH10, unit assumed
[4] = system: KLEBSIELLA PNEUMONIAE ATCC 8045; assay: as above; settings: K. pneumoniae ATCC 8045, unit assumed
[5] = system: PSEUDOMONAS AERUGINOSA DPHD-5263; assay: as above; settings: P. aeruginosa DPHD-5263, unit assumed
[6] = system: STAPHYLOCOCCUS AUREUS NCTC10649M; assay: as above; settings: S. aureus NCTC10649M, unit assumed
[7] = system: STREPTOCOCCUS PYOGENES EES61; assay: as above; settings: S. pyogenes EES61, unit assumed
[8] = system: ACINETOBACTER CALCOACETICUS CMX 669; assay: as above; settings: A. calcoaceticus CMX 669, unit assumed
[9] = system: CANDIDA ALBICANS CCH 442; assay: as above; settings: C. albicans CCH 442, unit assumed
[10] = system: STAPHYLOCOCCUS AUREUS CMX 642A; assay: as above; settings: S. aureus CMX 642A, unit assumed
[11] = system: STAPHYLOCOCCUS AUREUS A-5278; assay: as above; settings: S. aureus A-5278, unit assumed
[12] = system: ESCHERICHIA COLI H560; assay: as above; settings: E. coli H560, unit assumed
[13] = system: PROVIDENCIA STUARTII CMX 640; settings: P. stuartii CMX 640; BHI agar; unit assumed
[14] = system: ENTEROBACTER AEROGENES ATCC 13048; assay: In vitro antibacterial activity, MIC, BHI agar dilution; settings: E. aerogenes ATCC 13048, unit assumed
[15] = system: STREPTOCOCCUS PYOGENES 930; assay: as above; settings: S. pyogenes 930, unit assumed
[16] = system: MYCOBACTERIUM SMEGMATIS ATCC 114; assay: as above; settings: M. smegmatis ATCC 114, unit assumed
[17] = system: STREPTOCOCCUS PYOGENES PIU 2548; assay: as above; settings: S. pyogenes PIU 2548, unit assumed
[18] = system: STAPHYLOCOCCUS EPIDERMIDIS 3519; settings: S. epidermidis 3519; BHI agar; unit assumed
[19] = system: ESCHERICHIA COLI DC-2; assay: In vitro antibacterial activity, MIC, BHI agar dilution; settings: E. coli DC-2, unit assumed
[20] = system: STAPHYLOCOCCUS AUREUS CMX 553; assay: as above; settings: S. aureus CMX 553, unit assumed
[21] = system: PSEUDOMONAS CEPACIA 296I; assay: as above; settings: P. cepacia 296I, unit assumed
[22] = system: PSEUDOMONAS AERUGINOSA DPHD-2862; assay: as above; settings: P. aeruginosa DPHD-2862, unit assumed
[23] = system: PSEUDOMONAS AERUGINOSA 5007; assay: as above; settings: P. aeruginosa 5007, unit assumed
[24] = system: M[…] ATCC 9341; assay: as above; settings: M. luteus ATCC 9341, unit assumed
Procedure, shortened: (§1)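 Agar dilution in BHI: plates inoculated with 1:100 dilutions of organisms (1:10 for Micrococcus and Streptococcus), incubated 20-24 h at 35-37° C, then inspected for the lowest inhibitory concentration against a drug-free growth control.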

[25] = system: M[…] ATCC 4698; assay: as above; settings: M. luteus ATCC 4698, unit assumed
Procedure, shortened: as §1

[26] = system: EN[…] ATCC 8043; assay: as above; settings: E. faecium ATCC 8043, unit assumed
Procedure, shortened: as §1

[27] = system: STR[…] 508; assay: as above; settings: S. agalactiae CMX 508, unit assumed
Procedure, shortened: as §1

[28] = system: PSEUDOMONAS AERUGINOSA K799/61; assay: as above; settings: P. aeruginosa K799/61, unit assumed
[29] = system: STREPTOCOCCUS BOVIS A-5169; assay: as above; settings: S. bovis A-5169, unit assumed
[30] = system: PSEUDOMONAS AERUGINOSA K799/WT; assay: as above; settings: P. aeruginosa K799/WT, unit assumed
[31] = system: STAPHYLOCOCCUS AUREUS ATCC 6538P; assay: as above; settings: S. aureus ATCC 6538P, 35-37° C., 20 to 24 hours, unit assumed
[32] = system: ESCHERICHIA COLI KNK 437; settings: E. coli KNK 437; BHI agar; unit assumed
[33] = system: ESCHERICHIA COLI SS; assay: In vitro antibacterial activity, MIC, BHI agar dilution; settings: E. coli SS, unit assumed

Compound	MIC [2]	MIC [3]	MIC [4]	MIC [5]	MIC [6]	MIC [7]	MIC [8]	MIC [9]	MIC [10]	MIC [11]	MIC [12]	MIC [13]	MIC [14]	MIC [15]	MIC [16]	MIC [17]	MIC [18]	MIC [19]	MIC [20]	MIC [21]	also measured
CC[C@H]1OC(=O)[C@H](C)C[C@H](C)[C@@H](O[C@@H]2O[C@H](C)C[C@H](N(C)C)[C@H]2O)[C@](C)(OC)C[C@@H](C)C2=NCCN3C(=O)O[C@@]1(C)[C@H]3[C@H]2C [Example 1]	> 100 µg/mL	> 100 µg/mL	> 100 µg/mL	50 µg/mL (≈ 80.1 µM)	6.2 µg/mL (≈ 9.94 µM)	0.39 µg/mL (≈ 0.625 µM)	> 100 µg/mL	> 100 µg/mL	6.2 µg/mL (≈ 9.94 µM)	> 100 µg/mL	50 µg/mL (≈ 80.1 µM)	100 µg/mL (≈ 160 µM)	> 100 µg/mL	> 100 µg/mL	3.1 µg/mL (≈ 4.97 µM)	0.78 µg/mL (≈ 1.25 µM)	12.5 µg/mL (≈ 20 µM)	0.78 µg/mL (≈ 1.25 µM)	6.2 µg/mL (≈ 9.94 µM)	12.5 µg/mL (≈ 20 µM)	MIC ([1]; S. aureus A5177): 6.2 µg/mL (≈ 9.94 µM); MIC [22]: > 100 µg/mL; MIC [23]: > 100 µg/mL; MIC [24]: 0.39 µg/mL (≈ 0.625 µM); MIC [25]: 0.39 µg/mL (≈ 0.625 µM); MIC [26]: 0.78 µg/mL (≈ 1.25 µM); MIC [27]: 0.39 µg/mL (≈ 0.625 µM); MIC [28]: > 100 µg/mL; MIC [29]: 0.39 µg/mL (≈ 0.625 µM); MIC [30]: > 100 µg/mL; MIC [31]: 6.2 µg/mL (≈ 9.94 µM); MIC [32]: 25 µg/mL (≈ 40.1 µM)
CC[C@H]1OC(=O)[C@H](C)C(=O)[C@H](C)[C@@H](O[C@@H]2O[C@H](C)C[C@H](N(C)C)[C@H]2O)[C@](C)(OC)C[C@@H](C)C2=NC[C@@H](C)N3C(=O)O[C@@]1(C)[C@H]3[C@H]2C [Example 9]	> 100 µg/mL	100 µg/mL (≈ 153 µM)	25 µg/mL (≈ 38.4 µM)	> 100 µg/mL	0.2 µg/mL (≈ 0.307 µM)	0.01 µg/mL (≈ 0.0153 µM)	12.5 µg/mL (≈ 19.2 µM)	> 100 µg/mL	0.39 µg/mL (≈ 0.598 µM)	> 100 µg/mL	25 µg/mL (≈ 38.4 µM)	> 100 µg/mL	25 µg/mL (≈ 38.4 µM)	> 100 µg/mL	3.1 µg/mL (≈ 4.76 µM)	0.39 µg/mL (≈ 0.598 µM)	0.39 µg/mL (≈ 0.598 µM)	25 µg/mL (≈ 38.4 µM)	0.39 µg/mL (≈ 0.598 µM)	> 100 µg/mL	MIC ([1]; S. aureus A5177, unit assumed): 0.39 µg/mL (≈ 0.598 µM); MIC [22]: > 100 µg/mL; MIC [23]: > 100 µg/mL; MIC [24]: 0.1 µg/mL (≈ 0.153 µM); MIC [25]: 0.39 µg/mL (≈ 0.598 µM); MIC [26]: 0.05 µg/mL (≈ 0.0767 µM); MIC [27]: 0.01 µg/mL (≈ 0.0153 µM); MIC [28]: 6.2 µg/mL (≈ 9.51 µM); MIC [30]: 100 µg/mL (≈ 153 µM); MIC [31]: 0.39 µg/mL (≈ 0.598 µM); MIC [32]: 100 µg/mL (≈ 153 µM)
CC[C@H]1OC(=O)[C@H](C)C(=O)[C@H](C)[C@@H](O[C@@H]2O[C@H](C)C[C@H](N(C)C)[C@H]2O)[C@](C)(OC)C[C@@H](C)C2=NC[C@H](Cc3ccc(OCc4ccccc4)cc3)N3C(=O)O[C@@]1(C)[C@H]3[C@H]2C [Example 64]	50 µg/mL (≈ 59.9 µM)	> 100 µg/mL	> 100 µg/mL	> 100 µg/mL	0.2 µg/mL (≈ 0.24 µM)	0.05 µg/mL (≈ 0.0599 µM)	> 100 µg/mL	50 µg/mL (≈ 59.9 µM)	0.39 µg/mL (≈ 0.468 µM)	50 µg/mL (≈ 59.9 µM)	> 100 µg/mL	> 100 µg/mL	> 100 µg/mL	25 µg/mL (≈ 30 µM)	1.56 µg/mL (≈ 1.87 µM)	0.78 µg/mL (≈ 0.935 µM)	0.39 µg/mL (≈ 0.468 µM)	> 100 µg/mL	0.2 µg/mL (≈ 0.24 µM)	> 100 µg/mL	MIC ([1]; S. aureus A5177, unit assumed): 0.2 µg/mL (≈ 0.24 µM); MIC [33]: 6.2 µg/mL (≈ 7.43 µM); MIC [22]: > 100 µg/mL; MIC [23]: > 100 µg/mL; MIC [24]: 0.1 µg/mL (≈ 0.12 µM); MIC [25]: 0.78 µg/mL (≈ 0.935 µM); MIC [26]: 0.2 µg/mL (≈ 0.24 µM); MIC [27]: 0.1 µg/mL (≈ 0.12 µM); MIC [28]: 12.5 µg/mL (≈ 15 µM); MIC [29]: 0.1 µg/mL (≈ 0.12 µM); MIC [30]: > 100 µg/mL; MIC [31]: 0.39 µg/mL (≈ 0.468 µM); MIC [32]: > 100 µg/mL
CC[C@H]1OC(=O)[C@H](C)C(=O)[C@H](C)[C@@H](O[C@@H]2O[C@H](C)C[C@H](N(C)C)[C@H]2O)[C@](C)(OC)C[C@@H](C)C2=NC[C@H](Cc3ccc(NC(=O)OCc4ccccc4)cc3)N3C(=O)O[C@@]1(C)[C@H]3[C@H]2C [Example 68]	> 100 µg/mL	> 100 µg/mL	> 100 µg/mL	> 100 µg/mL	0.2 µg/mL (≈ 0.228 µM)	0.1 µg/mL (≈ 0.114 µM)	100 µg/mL (≈ 114 µM)	> 100 µg/mL	0.2 µg/mL (≈ 0.228 µM)	> 100 µg/mL	50 µg/mL (≈ 57 µM)	> 100 µg/mL	> 100 µg/mL	50 µg/mL (≈ 57 µM)	3.1 µg/mL (≈ 3.53 µM)	0.78 µg/mL (≈ 0.889 µM)	0.39 µg/mL (≈ 0.445 µM)	100 µg/mL (≈ 114 µM)	0.2 µg/mL (≈ 0.228 µM)	> 100 µg/mL	MIC ([1]; S. aureus A5177, unit assumed): 0.2 µg/mL (≈ 0.228 µM); MIC [33]: 1.56 µg/mL (≈ 1.78 µM); MIC [22]: > 100 µg/mL; MIC [23]: > 100 µg/mL; MIC [24]: 0.1 µg/mL (≈ 0.114 µM); MIC [25]: 0.39 µg/mL (≈ 0.445 µM); MIC [26]: 0.2 µg/mL (≈ 0.228 µM); MIC [27]: 0.05 µg/mL (≈ 0.057 µM); MIC [28]: 3.1 µg/mL (≈ 3.53 µM); MIC [29]: 0.05 µg/mL (≈ 0.057 µM); MIC [30]: > 100 µg/mL; MIC [31]: 0.2 µg/mL (≈ 0.228 µM); MIC [32]: > 100 µg/mL
